Measurements published in US20100022559A1, “BISOXIMES AS FUNGICIDES” (BAYER CROPSCIENCE AG, priority 2006, published 2010).

Assay: logP determination by HPLC on a reversed-phase column (C 18), EEC Directive 79/831 Annex V.A8
Type: physicochemical
Method: The stated logP values were determined in accordance with EEC Directive 79/831 Annex V.A8 by HPLC (high performance liquid chromatography) on a reversed-phase column (C 18). Temperature: 43° C.

[1] = method marker [b], isomer A / isomer B / isomer mixture as noted in the cell
[2] = method marker [a] (footnote not shown), isomer A / isomer B / isomer mixture as noted in the cell

For `CC(=NOCC1(CON=C(C)c2nc(C)ccc2C)CC1)c1nc(C)ccc1C` (single isomer, unassigned) [compound 764], the logP (value marked [b]) was 2.17^[b] and the logP (value marked [c]) was 4.00^[c].

With `Cc1cc(C)nc(/C(N)=N/OCc2ccc(CO/N=C(\N)c3nc(C)cc(C)n3)cc2)n1` [compound 702] the logP (method marked [b] in Table 1) was 2.11^[b].

In the case of `CC(=NOCC(C)(C)CON=C(C)c1csc(C)n1)c1csc(C)n1` [compound 518], the logP (value marked [a]) is reported as 3.99^[a] and the logP (value marked [b]) is reported as 3.99^[b].

With `CC(=NOCC1(CON=C(C)c2ccc(C)c(C)n2)CC(c2ccc(Cl)cc2)=NO1)c1ccc(C)c(C)n1` (stereo not drawn) [compound 633] the logP (method marked [b] in Table 1) was 4.51^[b].

With `CC(=NOCCON=C(C)c1cc(C)ccn1)c1cc(C)ccn1` [compound 34] the logP [1] was 1.71^[b].

In the case of `CC(=NOCC(C)CON=C(C)c1cc(-c2ccccc2)ccn1)c1cc(-c2ccccc2)ccn1` (stereo not drawn) [Compound 119], the logP [2] is reported as 6.33^[a].

With `C=C(CON=C(C)c1cccc(C(C)=O)n1)CON=C(C)c1cccc(C(C)=O)n1` [compound 120] the logP [1] was 5.15^[b].

In the case of `CC(=NOC(C)CC(C)ON=C(C)c1ccc(C)c(C)n1)c1ccc(C)c(C)n1` (stereo not drawn) [Compound 322], the logP (value marked [b]) is reported as 3.4^[b] and the logP (value marked [c]) is reported as 6.79^[c].

In the case of `CC(=NOCC(C)CON=C(C)c1nc(C)cs1)c1nc(C)cs1` (mixture of isomers) [compound 122], the logP [2] is reported as 4.98^[a].

For `C=C(CON=C(C)c1cccc(C)n1)CON=C(C)c1cccs1` [compound 196], the logP [1] was 4.23^[b].

For `CCC(=NOCCCCCCON=C(C)c1cccc(C)n1)c1ncccc1C` (single isomer, unassigned) [compound 532], the logP (value marked [b]) was 3.99^b] (isomer )A.

In the case of `CCC(=NOCC1(CON=C(CC)c2cccc(C)n2)CC(C)=NO1)c1cccc(C)n1` (stereo not drawn) [compound 605], the logP (method marked [b] in Table 1) is reported as 3.42^[b].

For `CC(=NOCC(C)CON=C(C)c1nc(C)c(C)cc1C)c1nc(C)c(C)cc1C` (stereo not drawn) [Compound 255], the logP (value marked [a]) was 2.19^[a].

With `CCC(=NOCC(C)CON=C(CC)c1ccc(C)c(C)n1)c1ccc(C)c(C)n1` (stereo not drawn) [Compound 235] the logP [2] was 4.88^[a].

With `COC(=NOCC(C)CON=C(OC)c1cccc(C)n1)c1cccc(C)n1` (stereo not drawn) [Compound 835] the logP (value marked [a]) was 1.95^[a].

For `C=C(CON=C(SCCC)c1cccc(C)n1)CON=C(SCCC)c1cccc(C)n1` [compound 819], the logP (value marked [a]) was 4.9^[a].

With `CC(=NOCCCON=C(C)c1cccc(C(F)F)n1)c1cccc(C(F)F)n1` [compound 521] the logP (value marked [a]) was 5.21^[a].

In the case of `C/C(=N\OCC(C)(C)CON)c1cc(C)cc(C)n1` [XII-14], the logP ([a] acidic range, pH 2.3, 0.1% aqueous phosphoric acid and acetonitrile) is reported as 0.8^[a], the logP ([b] LC-MS, acidic range, pH 2.7, 0.1% aqueous formic acid and acetonitrile) is reported as 0.8^[b] and the logP ([c] LC-MS, neutral range, pH 7.8, 0.001 molar aqueous ammonium bicarbonate solution and acetonitrile) is reported as 2.89^[c].

In the case of `CC(=NOCC(CON=C(C)c1nc(C)ccc1C)Cc1ccccc1)c1cccc(C)n1` (stereo not drawn) [compound 591], the logP (method marked [b] in Table 1) is reported as 3.40^[b] and the logP (method marked [c] in Table 1) is reported as 5.07^[c].

For `CC(=NOCCCON=C(C)c1ccc(C)c(C)n1)c1ccc(C)c(C)n1` [Compound 72], the logP [2] was 2.23^[a].

For `CC(=NOCCON=C(C)c1ncc(Cl)cc1Cl)c1ncc(Cl)cc1Cl` [compound 55], the logP [1] was 5.39^[b].

In the case of `CC(=NOC/C=C/CON=C(C)c1ccccn1)c1ccccn1` [compound 781], the logP (value marked [b]) is reported as 2.84^[b].

In the case of `CC(=NOCC(C)CON=C(C)c1cccc(C)n1)c1ccc(Cl)cc1` (stereo not drawn) [compound 496], the logP (value marked [b]) is reported as 5.78^[b].

With `Cc1cccc(C(=NOCC(C)CON=C(c2cccc(C)n2)C2CC2)C2CC2)n1` (single isomer, unassigned) [Compound 164] the logP [2] was 3.51^]a] (isomer B).

In the case of `CC(=NOCC(C)CON=C(C)c1cccc(N2CCCC2)n1)c1cccc(N2CCCC2)n1` (stereo not drawn) [Compound 783], the logP (value marked [a]) is reported as 2.51^[a].

For `C=C(CON=C(C)c1cccc(C)n1)CON=C(N)c1ncc(F)cc1F` [compound 242], the logP [1] was 2.48^[b).

For `C=C(CON=Cc1cccc(C)n1)CON=Cc1cccc(C)n1` (single isomer, unassigned) [compound 662], the logP (method marked [b] in Table 1) was 2.16^[b] (isomer B).

For `CCC1=NOC(CON=C(c2cccc(C)n2)C2CC2)(CON=C(c2cccc(C)n2)C2CC2)C1` (stereo not drawn) [compound 652], the logP (method marked [a] in Table 1) was 2.95^[a].

For `CC(=NOCC(C)CON=C(C)c1cccc(C(F)F)n1)c1cccc(C(F)F)n1` (stereo not drawn) [compound 306], the logP (value marked [a]) was 5.49^[a].

In the case of `CC(=NOCC(C)(C)CON=C(C)c1ccc2c(n1)CCCC2)c1ccc2c(n1)CCCC2` [Compound 303], the logP (value marked [a]) is reported as 5.49^[a].

For `C=C(CON=C(C)c1cncc(C)c1)CON=C(C)c1cccc(C)n1` [compound 361], the logP (value marked [b]) was 2.20^[b].

For `CCCC(=NOCC1(CON=C(CCC)c2cccc(C)n2)CC(CC(C)C)=NO1)c1cccc(C)n1` (stereo not drawn) [compound 619], the logP (method marked [b] in Table 1) was 6.22^[b].

For `CCc1cccc(C(C)=NOCC(C)CON=C(C)c2cccc(CC)n2)n1` (stereo not drawn) [Compound 179], the logP [2] was 6.21^[a].

With `COc1cc(C)nc(C(C)=NOCC(C)CON=C(C)c2cc(OC)cc(C)n2)c1` (stereo not drawn) [Compound 806] the logP (value marked [a]) was 1.31^[a] and the logP (value marked [c]) was 5.25^[c].

In the case of `CC(=NOCCCCON=C(C)c1cccc(CC(C)C)n1)c1cccc(C)n1` [compound 326], the logP (value marked [b]) is reported as 6.16^[b].
